Test: Toxicity in chick embryo measured per egg after 4 days
Set-up: species or system Gallus gallus
Details: chicken, 96 h

Row | SMILES | LD50 [µg]
1 | CC1=C[C@@H]2OC[C@]3(O)C(=O)CC[C@]3(C)[C@@]2(C)C[C@H]1O | > 10
2 | CC1=C[C@@H]2OC[C@]3(O)C(=O)CC[C@]3(C)[C@@]2(C)C[C@@H]1O | > 10
